US12558345B2, “CHK1/2 inhibitors for use in the treatment of neuroblastomas and/or soft tissue sarcomas” (Eli Lilly and Company, priority 2015, dated 2026)
Counter-ions that a name gives are not always drawn. Like-named read-outs stand apart in the source and are kept apart here.

Columns and labels:
[1] = system: Calu-6 lung tumor xenograft; assay: Human Tumor Xenograft Models, with gemcitabine: Calu-6; format: in vivo, mouse
Method: The ability of CHK1 inhibitors to effect tumor killing can be determined in vivo using the Calu-6 lung and HT-29 colon tumor xenograft efficacy models. Calu-6 lung cancer cells (ATCC) are cultured in growth media (MEM w/ Earle's salts (Invitrogen) with L-glutamine (Gibco™) supplemented with 10% (v/v) heat inactivated FBS (Gibco™), 1×MEM non-essential amino acids (Gibco™), 1×sodium pyruvate (Gibco™)) and HT-29 colon cancer cells (ATCC) are cultured in growth media, (McCoy's 5A medium (Gibco™) supplemented with 10% FBS (Gibco™)) and expanded. Cells are harvested and washed twice with phosphate buffered saline and 5×10^6 cells (HT-29) or 1×10^6 cells (Calu-6) in growth media (without serum) are mixed with equal volume of BD Matrigel™ matrix (BD Bioscience, Franklin, NJ), then injected subcutaneously into the flank of nude mice (CD-1 nu/nu, from Charles River Labs, Wilmington, MA). At about day 16 after implant (150-200 mm^3), gemcitabine is formulated fresh in saline daily and administered to animals by intraperitoneal route at 60 mg/kg dose. […] Tumor response is determined by tumor volume measurement performed twice a week during the course of treatment. Tumor growth inhibition (TGI) is calculated as the percent reduction in mean tumor size of a compound treated group from the mean tumor size of the vehicle-treated control group.

[2] = system: CTG-0816 EWS patient-derived xenograft; assay: Xenograft Tumor Model CTG-0816; format: in vivo, mouse; conditions: comparator day 28, p-value 0.069
Method: (§1) The efficacy of 5-(5-(2-(3-aminopropoxy)-6-methoxyphenyl)-1H-pyrazol-3-ylamino)pyrazine-2-carbonitrile methanesulfonic acid monohydrate is measurable in vivo in mouse models of neuroblastomas and human pediatric and adult sarcomas. 5-(5-(2-(3-Aminopropoxy)-6-methoxyphenyl)-1H-pyrazol-3-ylamino)pyrazine-2-carbonitrile methanesulfonic acid monohydrate (10 mg/kg) can be administered subcutaneously to nude mice bearing either cell-derived xenografts (CDX) or patient-derived xenografts (PDX) of human rhabdomyosarcoma, desmoplastic small round cell tumor (DSRCT), osteosarcoma, and Ewing's sarcoma using a 3 day on, 4 day off b.i.d. dosing schedule. Tumor volume and body weight can be measured two times per week. Tumor-specific parameters can be evaluated by immumohistochemistry. […]
(§2) For all “ST” models (encompassing RMS and LMS), patient-derived xenografts are established from viable human tumor tissue and are serially passaged in animals a limited number of times to maintain tumor heterogeneity. […] Tumor response is determined by tumor volume measurement performed twice per week during the course of treatment.

[3] = system: ST162 patient-derived xenograft; assay: Xenograft Tumor Model ST162; format: in vivo, mouse; conditions: ST162, LMS, comparator day 39, p-value <0.001
Method: (§3) For all “ST” models (encompassing RMS and LMS), patient-derived xenografts are established from viable human tumor tissue and are serially passaged in animals a limited number of times to maintain tumor heterogeneity. In subcutaneous models, athymic nude mice (Crl:NU(NCr)-Foxn1nu) or CB-17 SCID mice (CRL-CB17/Icr-Prkdcscid/IcrIcoCrl) are injected or implanted unilaterally into the flank with tumor fragments harvested from host animals, each implanted from a specific passage lot. For all studies, measure tumor growth and body weight twice per week beginning on the seventh day after implantation. When tumor size reaches 150-300 mm^3, randomize animals and group into groups of 4-7 animals. Prepare test compound in an appropriate vehicle (e.g. vehicle can be 20% Captisol® in sterile water) and administer subcutaneously for three consecutive days followed by a four day dosing holiday and repeat for a minimum of four weeks. Tumor response is determined by tumor volume measurement performed twice per week during the course of treatment.

[4] = system: ST240 LMS patient-derived xenograft; assay: Xenograft Tumor Model ST240; format: in vivo, mouse; conditions: comparator day 29, p-value 0.022
Method: as §3

[5] = system: ST658 LMS patient-derived xenograft; assay: Xenograft Tumor Model ST658; format: in vivo, mouse; conditions: comparator day 16, p-value 0.592
Method: as §3

[6] = system: SH-SY5Y human NBM cancer cell xenograft; assay: Xenograft Tumor Model SH-SY5Y; format: in vivo, mouse; conditions: comparator day 28, 8 mg/kg dose, p-value <0.001
Method: (§4) The following protocol can be used to measure reductions in tumor volume in response to an active pharmaceutical ingredient. Expand human NBM cancer cells SH-SY5Y (ATCC, #CRL-2226) in culture, harvest, and inject 5×10^6 cells in 200 μL of 1:1 solution of HBSS and Matrigel® subcutaneously into the right rear flank of female CD-1 nu/nu mice (20-24 g, Charles River Laboratories). Expand human NBM cancer cells KELLY (Sigma-#92110411) in culture, harvest, and inject 5×10^6 cells in 200 μL of 1:1 solution of HBSS and Matrigel® subcutaneously into the right rear flank of female CB-17 SCID mice (20-24 g, Charles River Laboratories). Expand human NBM cancer cells IMR-32 (ATCC, #CCL-127) in culture, harvest, and inject 5×10^6 cells in 200 μL of 1:1 solution of HBSS and Matrigel® subcutaneously into the right rear flank of female CB-17 SCID mice (20-24 g, Charles River Laboratories).
as §2

[7] = system: Leiomyosarcoma xenograft models; assay: Sarcoma xenograft models by tumor subtype: Leiomyosarcoma; format: in vivo, mouse
Description: (§5) For all “CTG” models (encompassing human RMS, DSRCT, EWS, OS and LMS patient-derived xenograft models), female NCr nude spontaneous mutant mice (5-8 weeks old, Taconic) are implanted unilaterally in the flank region with tumor fragments harvested from donor animals, each implanted from a specific passage lot.
as §3

[8] = system: pediatric sarcoma in vivo mouse models; assay: Pediatric tumor / pediatric sarcoma in vivo mouse models (panel)
Method: The efficacy of 5-(5-(2-(3-aminopropoxy)-6-methoxyphenyl)-1H-pyrazol-3-ylamino)pyrazine-2-carbonitrile methanesulfonic acid monohydrate is measurable in vivo in mouse models of neuroblastomas and human pediatric and adult sarcomas. 5-(5-(2-(3-Aminopropoxy)-6-methoxyphenyl)-1H-pyrazol-3-ylamino)pyrazine-2-carbonitrile methanesulfonic acid monohydrate (10 mg/kg) can be administered subcutaneously to nude mice bearing either cell-derived xenografts (CDX) or patient-derived xenografts (PDX) of human rhabdomyosarcoma, desmoplastic small round cell tumor (DSRCT), osteosarcoma, and Ewing's sarcoma using a 3 day on, 4 day off b.i.d. dosing schedule. Tumor volume and body weight can be measured two times per week. Tumor-specific parameters can be evaluated by immumohistochemistry.
as §5
For all “ST” models (encompassing RMS and LMS), patient-derived xenografts are established from viable human tumor tissue and are serially passaged in animals a limited number of times to maintain tumor heterogeneity. In subcutaneous models, athymic nude mice (Crl:NU(NCr)-Foxn1nu) or CB-17 SCID mice (CRL-CB17/Icr-Prkdcscid/IcrIcoCrl) are injected or implanted unilaterally into the flank with tumor fragments harvested from host animals, each implanted from a specific passage lot. For all studies, measure tumor growth and body weight twice per week beginning on the seventh day after implantation. When tumor size reaches 150-300 mm^3, randomize animals and group into groups of 4-7 animals. […] Tumor response is determined by tumor volume measurement performed twice per week during the course of treatment.

[9] = system: ST0001 LMS patient-derived xenograft; assay: Xenograft Tumor Model ST0001; format: in vivo, mouse; conditions: comparator day 19, p-value 0.247
Method: as §3

[10] = system: CTG-0926 DSRCT patient-derived xenograft; assay: Xenograft Tumor Model CTG-0926; format: in vivo, mouse; conditions: comparator day 28, p-value <0.001
Method: as §1, §2

[11] = system: KELLY human NBM cancer cell xenograft; assay: Xenograft Tumor Model KELLY; format: in vivo, mouse; conditions: comparator day 49, p-value <0.001
Method: as §4, §2

SJCRH-30 RMS xenograft = format: in vivo; conditions: for % T/C: SJCRH-30, RMS
Method: Expand human RMS cancer cells SJCRH-30 (St. Jude Children's Research Hospital) in culture, harvest, and inject 5×10^6 cells in 200 μL of HBSS subcutaneously into the right rear flank of female athymic nude mice (20-22 g, Harlan Laboratories).
The vehicle used in this study is 20% Captisol® in sterile water and is administered subcutaneously for three consecutive days followed by a four day dosing holiday and repeated for a minimum of four weeks. […] The treatment period lasts 4 weeks.

[12] = system: CTG-0242 OS patient-derived xenograft; assay: Xenograft Tumor Model CTG-0242; format: in vivo, mouse; conditions: comparator day 28, p-value 0.012
Method: as §1, §2

[13] = system: CTG-0785 EWS patient-derived xenograft; assay: Xenograft Tumor Model CTG-0785; format: in vivo, mouse; conditions: comparator day 18, p-value 0.052
Method: as §1, §2

[14] = Leiomyosarcoma, age of patients 48-64 years
[15] = results ranging from stable disease to complete response

Q: With COc1cccc(OCCCN)c1-c1cc(Nc2cnc(C#N)cn2)n[nH]1 [Example 2, 5-(5-(2-(3-Aminopropoxy)-6-methoxyphenyl)-1H-pyrazol-3-ylamino)pyrazine-2-carbonitrile dihydrogen chloride salt] as the compound, how does the “increase in tumor growth inhibition over gemcitabine alone” value ([1]; Calu-6, combination with gemcitabine) read?
A: up to a six-fold increase

Q: What about the anti-tumor activity ([1]; Calu-6, dosed alone and in combination with gemcitabine 60 mg/kg ip, compound iv +24 hours, Q3Dx4) of the same compound?
A: excellent dose dependent anti-tumor activity

Q: What does the source list for COc1cccc(OCCCN)c1-c1cc(Nc2cnc(C#N)cn2)n[nH]1 [Example 5, 5-(5-(2-(3-Aminopropoxy)-6-methoxyphenyl)-1H-pyrazol-3-ylamino)pyrazine-2-carbonitrile methanesulfonic acid monohydrate]?
A: % T/C [2]: 44%; % Regression [3]: −93%; % T/C [4]: 67%; % T/C [5]: 137%; % Regression [6]: −21%; Result of Treatment: Partial Response (models) [7, 14]: 1/5 Partial; Result of Treatment: Stable Disease (models) [7, 14]: Response; 1/5; activity in PDX models ([7]; PDX models of leiomyosarcoma): active; pediatric tumor models with strong single agent activity ([8]; ranging from stable disease to complete regression, 10 mg/kg SC, 3 day on, 4 day off b.i.d.): 7/13; pediatric sarcoma in vivo mouse models in which effective as a single agent (models) [8, 15]: 7/17; pediatric sarcoma in vivo mouse models in which effective as a single agent (percent) [8, 15]: ~41%; % T/C [9]: 292%; % Regression [10]: −76%; % Regression [11]: −88%; % T/C (SJCRH-30 RMS xenograft; comparator day 46): 0.1%; % T/C (SJCRH-30 RMS xenograft; comparator day 56): 58%; tumor response as a single agent (SJCRH-30 RMS xenograft; SJCRH-30, SC three days on, four day holiday, 4 weeks, tumor regrowth occurs from day 38): initial complete response until day 38; effect on acquired resistance in SJCRH30 xenografts (SJCRH-30 RMS xenograft; combination with doxorubicin, ifosfamide, or irinotecan): appears to circumvent the acquired resistance; % T/C [12]: 6%; % T/C [13]: 57%
